Experiment [1] has as its target purified human Cathepsin-D (Homo sapiens (Human), UniProt P07339). As to the kind of experiment: Cathepsin-D Assay (time-resolved FRET).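 Note: Europium-labelled peptide substrate with QSY7 quencher, cleavage read as 620 nm fluorescence after 30 min preincubation then 30 min reaction at 30 °C, pH 5.0, inhibition lowers signal.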 The class given is biochemical. As to conditions: Assay 4; Ki calculated from IC50 by Cheng-Prusoff.
In experiment [2] the target is soluble human BACE-1 catalytic domain (Homo sapiens (Human), UniProt P56817). Put plainly: BACE-1 Ki Assay (BACE-1 HTRF FRET Assay). The class given is biochemical. Conditions: Assay 1; Ki calculated from IC50 by Cheng-Prusoff. On the procedure: Assay 1: BACE-1 Ki Assay (BACE-1 HTRF FRET Assay)
The compounds of the invention were determined to be potent inhibitors of BACE-1 using the following assay.
The following reagents were used in this assay. Na^+-Acetate pH 5.0; 1% Brij-35; Glycerol; Dimethyl Sulfoxide (DMSO); Recombinant human soluble BACE-1 catalytic domain (>95% pure); APP Swedish mutant peptide substrate (QSY7-APP^swe-Eu): QSY7-[…]-Europium-amide.
A homogeneous time-resolved FRET assay can be used to determine IC50 values for inhibitors of the soluble human BACE-1 catalytic domain. This assay monitors the increase of 620 nm fluorescence that resulted from BACE-1 cleavage of an APPswedish APP^swe mutant peptide FRET substrate (QSY7-[…]-Europium-amide). This substrate contains an N-terminal QSY7 moiety that serves as a quencher of the C-terminal Europium fluorophore (620 nm Em). In the absence of enzyme activity, 620 nm fluorescence is low in the assay and increased linearly over 3 hours in the presence of uninhibited BACE-1 enzyme. Inhibition of BACE-1 cleavage of the QSY7-APP^swe-Eu substrate by inhibitors is manifested as a suppression of 620 nm fluorescence.
Varying concentrations of inhibitors at 3× the final desired concentration in a volume of […] are preincubated with purified human BACE-1 catalytic domain (3 nM in 10 μl) for 30 minutes at 30° C. in reaction buffer containing 20 mM Na-Acetate pH 5.0, 10% glycerol, 0.1% Brij-35 and 7.5% DSMO. Reactions are initiated by addition of 10 μl of 600 nM QSY7-APP^swe-Eu substrate (200 nM final) to give a final reaction volume of 30 μl in a 384 well Nunc HTRF plate. The reactions are incubated at 30° C. for 1.5 hours. The 620 nm fluorescence is then read on a Rubystar HTRF plate reader (BMG Labtechnologies) using a […] delay followed by a 400 millisecond acquisition time window. Inhibitor IC50 values are derived from non-linear regression analysis of concentration response curves. Ki values are then calculated from IC50 values using the Cheng-Prusoff equation using a previously determined […] of 8 μM for the QSY7-APP^swe-Eu substrate at BACE-1. The example compounds of the invention were measured in this assay.

Experiment [3] addresses BACE-1 (Homo sapiens (Human), UniProt P56817). As to the kind of experiment: BACE-1 Cellular Assay (Aβ in HEK293-APPswe/lon cells). It is filed as cell-based. Conditions: 4 hours. The procedure: Assay 3: BACE-1 Cellular Assay
Certain compounds of the invention, identified in the tables herein, were determined to be potent inhibitors of BACE-1 in the following cellular assay. HEK293 cells are obtained from the American Type Culture Collection (ATCC) and stably transfected with the human amyloid precursor protein cDNA containing the FAD Swedish (enhances β-secretase processing) and London (enhances Aβ42 cleavage) mutations. A HEK293 stable clone with Aβ expression (HEK293-APP^swe/lon) is identified and maintained at 37° C., 5% CO2 in the ATCC-recommended growth media supplemented with hygromycin. […] Aβ40 or Aβ42 are measured in 15 μl of media using a mesoscale based ELISA assay. Full length Aβ40 and Aβ42 peptides are captured with the N-terminal specific biotinylated-WO2 monoclonal antibody and detected using either the ruthenylated Aβ40 C-terminal specific monoclonal antibody, G2-10 or the ruthenylated Aβ42 C-terminal specific monoclonal antibody G2-11 respectively. Raw electrochemiluminescnce values are measured using a Mesoscale Sector Imager plate reader and are plotted as a function of compound concentration. IC50 values are interpolated from the data using nonlinear regression analysis (Sigmoidal dose response fit with variable slope) of the data using GraphPad Prism software.

Experiment [4] deals with purified human autoBACE-2 (Homo sapiens (Human), UniProt Q9Y5Z0). As to the kind of experiment: BACE-2 Assay (BACE-HTRF assay). The class given is biochemical. Conditions: Assay 2; Ki calculated from IC50 by Cheng-Prusoff; read-out: BACE2 Ki. The procedure:
The compounds of the invention were determined to be potent inhibitors of BACE-2 using the following assay. Inhibitor IC50s at purified human autoBACE-2 are determined in a time-resolved endpoint proteolysis assay that measures hydrolysis of the QSY7-[…]-Eu-amide FRET peptide substrate (BACE-HTRF assay). BACE-mediated hydrolysis of this peptide results in an increase in relative fluorescence (RFU) at 620 nm after excitation with 320 nm light Inhibitor compounds, prepared at 3× the desired final concentration in 1×BACE assay buffer (20 mM sodium acetate pH 5.0, 10% glycerol, 0.1% Brij-35) supplemented with 7.5% DMSO are pre-incubated with an equal volume of autoBACE-2 enzyme diluted in 1×BACE assay buffer (final enzyme concentration 1 nM) in black 384-well NUNC plates for 30 minutes at 30° C. […] DMSO is present at […] final concentration in the assay. Following laser excitation of sample wells at 320 nm, the fluorescence signal at 620 nm is collected for 400 ms following a 50 μs delay on a RUBYstar HTRF plate reader (BMG Labtechnologies). Raw RFU data is normalized to maximum (1.0 nM BACE/DMSO) and minimum (no enzyme/DMSO) RFU values. IC50 values are determined by nonlinear regression analysis (sigmoidal dose response, variable slope) of percent inhibition data with minimum and maximum values set to 0 and 100 percent respectively. Similar IC50s are obtained when using raw RFU data. The Ki values are calculated from the IC50 using the Cheng-Prusoff equation.

Sequence of purified human Cathepsin-D (P07339 65-412): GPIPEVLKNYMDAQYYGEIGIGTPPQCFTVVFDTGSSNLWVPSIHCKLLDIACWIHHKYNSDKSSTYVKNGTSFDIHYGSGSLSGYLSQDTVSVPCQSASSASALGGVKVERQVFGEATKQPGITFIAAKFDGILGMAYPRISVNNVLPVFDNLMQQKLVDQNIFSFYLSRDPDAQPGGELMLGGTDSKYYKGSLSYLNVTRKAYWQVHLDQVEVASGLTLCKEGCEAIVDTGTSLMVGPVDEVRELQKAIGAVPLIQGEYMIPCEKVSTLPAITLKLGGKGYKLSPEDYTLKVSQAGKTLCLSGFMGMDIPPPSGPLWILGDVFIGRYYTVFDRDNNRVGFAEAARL
Sequence of soluble human BACE-1 catalytic domain (P56817 75-416): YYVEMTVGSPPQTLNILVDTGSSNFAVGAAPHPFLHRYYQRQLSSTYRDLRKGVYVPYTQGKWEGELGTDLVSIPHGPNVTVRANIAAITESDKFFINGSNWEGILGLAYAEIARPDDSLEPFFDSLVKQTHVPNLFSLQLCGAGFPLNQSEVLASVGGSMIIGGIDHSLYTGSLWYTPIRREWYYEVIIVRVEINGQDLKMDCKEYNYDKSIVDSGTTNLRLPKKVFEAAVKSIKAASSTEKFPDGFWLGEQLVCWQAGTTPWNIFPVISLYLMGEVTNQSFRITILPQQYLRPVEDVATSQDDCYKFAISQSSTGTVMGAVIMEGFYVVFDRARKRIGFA
Sequence of BACE-1 (P56817 46-501): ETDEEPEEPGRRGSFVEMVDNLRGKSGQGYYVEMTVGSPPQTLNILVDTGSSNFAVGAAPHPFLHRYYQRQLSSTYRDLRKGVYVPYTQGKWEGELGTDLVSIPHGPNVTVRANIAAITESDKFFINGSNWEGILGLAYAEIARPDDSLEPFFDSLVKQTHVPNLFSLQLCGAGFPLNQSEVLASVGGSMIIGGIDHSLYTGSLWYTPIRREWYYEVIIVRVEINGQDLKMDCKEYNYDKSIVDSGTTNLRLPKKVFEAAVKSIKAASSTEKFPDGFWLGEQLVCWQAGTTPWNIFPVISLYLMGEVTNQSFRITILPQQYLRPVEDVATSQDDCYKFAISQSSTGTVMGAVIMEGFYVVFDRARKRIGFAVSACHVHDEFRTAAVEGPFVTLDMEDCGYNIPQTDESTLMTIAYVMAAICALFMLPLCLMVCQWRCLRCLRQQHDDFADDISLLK
Sequence of purified human autoBACE-2 (Q9Y5Z0 63-466): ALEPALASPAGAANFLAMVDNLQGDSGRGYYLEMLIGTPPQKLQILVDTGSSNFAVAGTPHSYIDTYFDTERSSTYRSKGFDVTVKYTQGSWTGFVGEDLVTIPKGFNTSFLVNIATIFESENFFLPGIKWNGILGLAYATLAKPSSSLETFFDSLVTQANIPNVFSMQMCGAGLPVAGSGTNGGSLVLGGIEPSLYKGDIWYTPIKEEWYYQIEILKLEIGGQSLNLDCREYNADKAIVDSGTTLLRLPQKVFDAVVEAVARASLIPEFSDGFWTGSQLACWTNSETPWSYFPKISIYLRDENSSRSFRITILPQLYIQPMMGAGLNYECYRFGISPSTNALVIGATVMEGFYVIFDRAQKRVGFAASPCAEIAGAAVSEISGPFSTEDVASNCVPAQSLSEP

A word on the Ki: it is the equilibrium dissociation constant of an inhibitor or competing ligand from its target. What is called IC50 is the point on the concentration scale where inhibition reaches its midpoint. A low value points to inhibition by little substance. With `C[C@@]1(c2nc(Nc3nccc4cc(C#N)cnc34)ccc2F)CS(=O)(=O)[C@@](CF)(C2CC2)C(N)=N1` [Example 2, 8-({6-[(3R,6S)-6-cyclopropyl-6-(fluoromethyl)-5-imino-3-methyl-1,1-dioxidothiomoipholin-3-yl]-5-fluoropyridin-2-yl}amino)-1,7-naphthyridine-3-carbonitrile], the Ki is 159 nM in experiment [1], 0.015 µM in experiment [2] and 0.0069 µM in experiment [4]. It took 52 nM to reach half-maximal inhibition in experiment [3] (IC50).

Turning to `C[C@@]1(c2cc(Nc3nccc4cc(Br)cnc34)ncc2F)CS(=O)(=O)[C@@](C)(C2CC2)C(N)=N1` [Example 3, 3-bromo-N-{4-[(3R,6S)-6-cyclopropyl-5-imino-3,6-dimethyl-1,1-dioxidothiomorpholin-3-yl]-5-fIuoropyridin-2-yl}-1,7-naphthyridin-8-amine], the inhibition constant (Ki) in experiment [1] was 5530 nM; in experiment [2], 0.0015 µM; in experiment [4] it was 0.00035 µM. In experiment [3], this compound yielded an IC50 of 25 nM.

For the compound `C[C@@]1(c2cc(Nc3nccc4cc(C#N)cnc34)ncc2F)CS(=O)(=O)[C@@](C)(C2CC2)C(N)=N1` [Example 4, 8-({4-[(3R,6S)-6-cyclopropyl-5-imino-3,6-dimethyl-1,1-dioxidothiomorpholin-3-yl]-5-fluoropyridin-2-yl}amino)-1,7-naphthyridine-3-carbonitrile], the inhibitory constant (Ki) in experiment [1] is 6650 nM; in experiment [2] it was 0.0038 µM; in experiment [4], 0.0015 µM. Besides, the IC50 in experiment [3] is 19 nM.

Take `COc1cnc2c(Nc3ccc(F)c([C@]4(C)CS(=O)(=O)[C@@](CF)(C5CC5)C(N)=N4)c3)nccc2n1` [Example 8, N-{3-[(3R,6S)-6-cyclopropyl-6-(fluoromethyl)-5-imino-3-methyl-1,1-dioxidothiomoipholin-3-yl]-4-fluorophenyl}-2-methoxypyrido[3,4-b]pyrazin-5-amine]: the values for the Ki in experiment [1], in experiment [2] and in experiment [4] were 4010 nM, 0.0045 µM and 0.0042 µM, respectively. For the same compound, half-maximal inhibition in experiment [3] (IC50) was put at 91 nM.

On to `COc1cnc2c(Nc3cc([C@]4(C)CS(=O)(=O)[C@@](C)(C5CC5)C(N)=N4)c(F)cn3)ccnc2c1` [Example 21, (2S,5R)-2-cyclopropyl-5-(5-fluoro-2-((7-methoxy-1,5-naphthyridin-4-yl)amino)pyridin-4-yl)-3-imino-2,5-dimethylthiomorpholine 1,1-dioxide], for which the Ki in experiment [2] is 0.0053 µM; in experiment [4], 0.0019 µM.

On to `COc1cnc2c(Nc3cc([C@]4(C)CS(=O)(=O)[C@@](C)(C5CC5)C(N)=N4)c(F)cn3)ncnc2n1` [Example 23, (2S,5R)-2-cyclopropyl-5-(5-fluoro-2-((7-methoxypteridin-4-yl)amino)pyridin-4-yl)-3-imino-2,5-dimethylthiomorpholine 1,1-dioxide], for which the results for the Ki in experiment [1], in experiment [2] and in experiment [4] were over 9400 nM, 0.271 µM and 0.129 µM, respectively.

On to `C[C@@]1(c2cc(Nc3nccc4cc(F)cnc34)ncc2F)CS(=O)(=O)[C@@](C)(C2CC2)C(N)=N1` [Example 26, (3R,6S)-5-amino-6-cyclopropyl-3-(5-fluoro-2-((3-fluoro-1,7-naphthyridin-8-yl)amino)pyridin-4-yl)-3,6-dimethyl-3,6-dihydro-2H-1,4-thiazine 1,1-dioxide], for which the IC50 in experiment [3] is 250 nM.

With `CC#CCOc1cnc2c(Nc3cc([C@]4(C)CS(=O)(=O)[C@@](C)(C5CC5)C(N)=N4)c(F)cn3)nccc2n1` [Example 28, (3R,6S)-5-amino-3-(2-((2-(but-2-yn-1-yloxy)pyrido[3,4-b]pyrazin-5-yl)amino)-5-fluoropyridin-4-yl)-6-cyclopropyl-3,6-dimethyl-3,6-dihydro-2H-1,4-thiazine 1,1-dioxide], the IC50 in experiment [3] was 6.3 nM.

`CC#CCOc1cnc2c(Nc3cnc(F)c([C@]4(C)CS(=O)(=O)[C@@](C)(C5CC5)C(N)=N4)c3)nccc2n1` [Example 29, (3R,6S)-5-amino-3-(5-((2-(but-2-yn-1-yloxy)pyrido[3,4-b]pyrazin-5-yl)amino)-2-fluoropyridin-3-yl)-6-cyclopropyl-3,6-dimethyl-3,6-dihydro-2H-1,4-thiazine 1,1-dioxide] gave a concentration for half-maximal inhibition (IC50) in experiment [3] of 30 nM.

As for `CC#CCOc1cnc2c(Nc3cnc(F)c([C@]4(C)CS(=O)(=O)[C@@](C)(C5CC5)C(N)=N4)c3)nccc2c1` [Example 30, (3R,6S)-5-amino-3-(5-((3-(but-2-yn-1-yloxy)-1,7-naphthyridin-8-yl)amino)-2-fluoropyridin-3-yl)-6-cyclopropyl-3,6-dimethyl-3,6-dihydro-2H-1,4-thiazine 1,1-dioxide], the IC50 in experiment [3] stood at 28 nM.

In turn, `C[C@@]1(c2cc(Nc3ccnc4cccnc34)ncc2F)CS(=O)(=O)[C@@](C)(C2CC2)C(N)=N1` [Example 31, (3R,6S)-3-(2-((1,5-naphthyridin-4-yl)amino)-5-fluoropyridin-4-yl)-5-amino-6-cyclopropyl-3,6-dimethyl-3,6-dihydro-2H-1,4-thiazine 1,1-dioxide] came in with an IC50 in experiment [3] of 180 nM.

On to `C[C@@]1(c2cc(Nc3ccnc4cc(F)cnc34)ncc2F)CS(=O)(=O)[C@@](C)(C2CC2)C(N)=N1` [Example 34, (3R,6S)-5-amino-6-cyclopropyl-3-(5-fluoro-2-((7-fluoro-1,5-naphthyridin-4-yl)amino)pyridin-4-yl)-3,6-dimethyl-3,6-dihydro-2H-1,4-thiazine 1,1-dioxide], for which, in experiment [3], the IC50 amounted to 32 nM.

Consider `COc1cnc2c(Nc3ccc(F)c([C@]4(C)CS(=O)(=O)[C@@](C)(C5CC5)C(N)=N4)c3)ccnc2n1` [Example 37, (3R,6S)-5-amino-6-cyclopropyl-3-(2-fluoro-5-((3-methoxypyrido[2,3-b]pyrazin-8-yl)amino)phenyl)-3,6-dimethyl-3,6-dihydro-2H-1,4-thiazine 1,1-dioxide], for which the concentration for half-maximal inhibition (IC50) in experiment [3] was determined as 23 nM.

`C[C@@]1(c2cc(Nc3ncnc4cc(C#N)cnc34)ncc2F)CS(=O)(=O)[C@@](C)(C2CC2)C(N)=N1` [Example 39, 4-((4-((3R,6S)-5-amino-6-cyclopropyl-3,6-dimethyl-1,1-dioxido-3,6-dihydro-2H-1,4-thiazin-3-yl)-5-fluoropyridin-2-yl)amino)pyrido[3,2-d]pyrimidine-7-carbonitrile]: the midpoint of inhibition in experiment [3], the IC50, lay at 130 nM.

`CC1(C)C(=N)N[C@](C)(c2nc(Nc3cccc(Cl)c3F)ccc2F)CS1(=O)=O` [WO′426 Ex. 30, reference compound]: the Ki is 3.2 µM in experiment [2] and 0.862 µM in experiment [4].

In the case of `COc1ccccc1Nc1ccc(F)c([C@]2(C)CS(=O)(=O)C(C)(C)C(=N)N2)n1` [WO′426 Ex. 30a, reference compound], the Ki in experiment [2] was 5.28 µM; in experiment [4] it was 0.517 µM.
